PubChem BioAssay (NCI)
“And” between values parts separate entries of the source, which are not always exact repeats. Equal entries are not always repeated.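 Grown in 96-well plates, cells were treated for 48 hours with each compound at five concentrations. Insufficient inhibition: endpoint recorded as highest concentration tested. GI50 is the concentration that inhibits growth by half. At the TGI there is no net growth.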

Assays:
Assay in all cases: NCI-60 cell line screen, 48 h
[1] = tested on: MDA-MB-435
[2] = tested on: COLO 205 colon
[3] = tested on: RXF 393 renal
[4] = tested on: CCRF-CEM leukemia
[5] = tested on: SF-295 CNS
[6] = tested on: NCI/ADR-RES ovarian
[7] = tested on: UO-31 renal
[8] = tested on: U251 CNS
[9] = tested on: T-47D breast
[10] = tested on: HOP-92 NSCLC

SMILES	GI50 [1] [µM]	TGI [1] [µM]	GI50 [2] [µM]	TGI [2] [µM]	GI50 [3] [µM]	TGI [3] [µM]	GI50 [4] [µM]	TGI [4]	GI50 [5]	TGI [5]	GI50 [6] [µM]	TGI [6] [µM]	GI50 [7]	TGI [7] [µM]	GI50 [8]	TGI [8] [µM]	GI50 [9] [µM]	TGI [9] [µM]	GI50 [10]	TGI [10]
Cn1ccc(=Nc2ccc(NC(=O)c3ccc(N=c4ccn(C)c5ccc([N+](=O)[O-])cc45)cc3)cc2)cc1	6.53	> 100	3.94	> 100	21.4	44.6	> 100	> 100 µM	12.8 µM	72.6 µM	> 100	> 100	> 100 µM	> 100	0.437 µM	> 100	5.27	> 100	42.4 µM	> 100 µM
COc1cc2c3c(n(CCN)c(=O)c2cc1OC)-c1cc2c(cc1C3=O)OCO2	1.04	2.78	0.8	4.4	1.54	4.06	< 0.01		< 0.0352 µM	2.09 µM	0.152	0.808	0.226 µM	1.91	0.367 µM		0.143	1.36	0.82 µM	2.62 µM
CCCCCCCCOc1ccc(/C=N/Nc2cc(C)nc3ccc(Cl)cc23)cc1	1.73	3.16	1.82	3.56	1.55	2.94	2.04	5.28 µM	1.83 µM	3.45 µM	1.97	4.07	1.55 µM	2.93	1.82 µM	3.39	1.92	4.09	1.51 µM	3.02 µM
Nc1c(C(=O)c2cccc(OCCN3CCOCC3)c2)cnn1-c1ccc(F)cc1	> 25	> 25	> 25	> 25	> 25	> 25	> 25	> 25 µM	> 25 µM	> 25 µM	> 25	> 25	> 25 µM	> 25	> 25 µM	> 25	> 23.7	> 25	> 25 µM	> 25 µM
O=C1c2cccnc2-c2nc(/C=C/c3ccccc3)cc3c2c1nc1ccccc13	1.86	3.37	3.74	16.7	14.8	37.1	3.06	> 100 µM	2.31 µM	5.27 µM	6.35	42.1	2.01 µM	6.5	2.9 µM	11.1	6.16	> 78.7	17.4 µM	> 100 µM
CC[N+](CC)=c1ccc2nc3c(cc(NCc4ccccc4)c4ccccc43)oc-2c1	0.18	0.352	0.153	0.311	0.781	2.12	0.476	7.15 µM	0.2 µM	0.51 µM	0.227	1.76	0.089 µM	1.15	0.196 µM	0.962	0.337	2.3	0.217 µM	1.33 µM
O=C1c2ccccc2S(=O)(=O)N1CSC(=S)N1CCCC1	99.7	> 100	> 100	> 100	> 100	> 100	5.78	> 100 µM	> 100 µM	> 100 µM	> 100	> 100	> 100 µM	> 100	> 100 µM	> 100	> 72.4	> 100	> 100 µM	> 100 µM
COc1cc(-c2oc3c(OC)c(OC)cc(O)c3c(=O)c2OC)ccc1O		> 50		> 100		> 100		> 100 µM and 21.4 µM	3.24 µM and 8.34 µM	> 100 µM and 38.1 µM		> 50	3.88 µM and 8.21 µM	> 100	5.97 µM and 12.7 µM	> 100		34.4	2.74 µM and 5.85 µM	9.13 µM and 30.1 µM
